Where only a bound is given, the exact number is not on record here.

For this assay, the system named is Respiratory Syncytial Virus. Description: In vitro screening for activity against Respiratory Syncytial Virus (MTT tetrazolium colorimetric assay, HeLa cells). Format: cell-based. Particulars: protection against RSV cytopathology in HeLa cells, 7 days after infection; pEC50 = −log of EC50 in molar units. The source says:
The percent protection against cytopathology caused by viruses (antiviral activity or EC50) achieved by tested compounds and their cytotoxicity (CC50) are both calculated from dose-response curves. The selectivity of the antiviral effect is represented by the selectivity index (SI), calculated by dividing the CC50 (cytotoxic dose for 50% of the cells) by the EC50 (antiviral activity for 50% of the cells). The tables in the above experimental part list the category to which each of the prepared compounds belong. Compounds belonging to activity category “A” have an pEC50 (−log of EC50 when expressed in molar units) equal to or more than 7. Compounds belonging to activity category “B” have a pEC50 value between 6 and 7.
Automated tetrazolium-based […] assays were used for determination of EC50 and CC50 of test compounds. Flat-bottom, 96-well plastic microtiter trays were filled with 180 μl of Eagle's Basal Medium, supplemented with 5% FCS (0% for FLU) and 20 mM Hepes buffer. Subsequently, stock solutions (7.8× final test concentration) of compounds were added in 45 μl volumes to a series of triplicate wells so as to allow simultaneous evaluation of their effects on virus- and mock-infected cells. Five five-fold dilutions were made directly in the microtiter trays using a robot system. Untreated virus controls, and HeLa cell controls were included in each test. Approximately 100 TCID50 of Respiratory Syncytial Virus was added to two of the three rows in a volume of 50 μl. The same volume of medium was added to the third row to measure the cytotoxicity of the compounds at the same concentrations as those used to measure the antiviral activity. After two hours of incubation, a suspension (4×10^5 cells/ml) of HeLa cells was added to all wells in a volume of 50 μl. The cultures were incubated at 37° C. in a 5% CO2 atmosphere. Seven days after infection the cytotoxicity and the antiviral activity was examined spectrophotometrically. To each well of the microtiter tray, 25 μl of a solution of MTT (3-(4,5-dimethylthiazol-2-yl)-2,5-diphenyltetrazolium bromide) was added. The trays were further incubated at 37° C. for 2 hours, after which the medium was removed from each cup. Solubilization of the formazan crystals was achieved by adding 100 μl 2-propanol. Complete dissolution of the formazan crystals were obtained after the trays have been placed on a plate shaker for 10 min. Finally, the absorbances were read in an eight-channel computer-controlled photometer (Multiskan MCC, Flow Laboratories) at two wavelengths (540 and 690 nm). The absorbance measured at 690 nm was automatically subtracted from the absorbance at 540 nm, so as to eliminate the effects of non-specific absorption.
For orientation: Formazan colour is commonly taken as a measure of viable cells.
In turn, `Cc1ccc(O)c(Cn2c(NC3CCN(C)CC3)nc3ccc(CN(Cc4cnc[nH]4)c4ccc(Cl)cc4)cc32)n1` [Compound 27] showed an Activity of 7.9.
In the case of `Cc1ccc(O)c(Cn2c(NC3CCN(C)CC3)nc3ccc(C(=O)NCc4ccccn4)cc32)n1` [Compound 134] it was less than 4; in that of `Cc1ccc(O)c(Cn2c(NC3CCN(C)CC3)nc3ccc(CNc4c(C)cc(Br)cc4C)cc32)n1` [Compound 87], 6.8; in that of `Cc1ccc(O)c(Cn2c(NC3CCN(C)CC3)nc3ccc(CN(CCN(C)C)Cc4ccccc4)cc32)n1.Cl` [Compound 59], 7.3.
`Cc1cccc(/C=C/c2ccc3nc(NC4CCN(C)CC4)n(Cc4nc(C)ccc4O)c3c2)c1` [Compound 103] displayed an Activity of 6.3.
Next, `Cc1ccc(O)c(Cn2c(NC3CCN(C)CC3)nc3ccc(CNc4ccccc4Br)cc32)n1` [Compound 22]: 7.9; `Cc1cc(C)cc(NCc2ccc3nc(NC4CCN(Cc5ccccc5)CC4)n(Cc4nc(C)ccc4O)c3c2)c1` [Compound 164]: 7.2; `Cc1ccc(O)c(Cn2c(NC3CCN(C)CC3)nc3ccc(CN(Cc4ccccc4)c4ccccc4)cc32)n1` [Compound 80]: 6.9.
In the case of `Cc1ccc(O)c(Cn2c(NC3CCN(CCO)CC3)nc3ccc(CCC#N)cc32)n1` [Compound 161] it was 7.8; in that of `Cc1ccc(O)c(Cn2c(NC3CCN(C)CC3)nc3ccc(CNc4ccccc4CO)cc32)n1` [Compound 7], 8.4.
In the case of `Cc1cccc(NCc2ccc3c(c2)nc(NC2CCN(C)CC2)n3Cc2nc(C)ccc2O)c1` [Compound 130] it was 4.6.
In turn, `Cc1cc(C)cc(NCc2ccc3nc(NCCc4ccccc4)n(Cc4nc(C)ccc4O)c3c2)c1` [Compound 187] came in with an Activity of less than 4.
Next, `Cc1ccc(O)c(Cn2c(NC3CCN(C)CC3)nc3cc(C(=O)NCc4ccccn4)ccc32)n1` [Compound 135]: less than 4; `Cc1cccc(SCc2ccc3c(c2)nc(NC2CCN(C)CC2)n3Cc2nc(C)ccc2O)c1` [Compound 132]: less than 4.
Next, `Cc1ccc(O)c(Cn2c(NC3CCN(C)CC3)nc3ccc(CN(CCO)Cc4ccccc4)cc32)n1` [Compound 85]: 6.8.
In the case of `COc1ccc(NCc2ccc3nc(NC4CCN(C)CC4)n(Cc4nc(C)ccc4O)c3c2)cc1OC` [Compound 61] it was 7.3; in that of `Cc1ccc(O)c(Cn2c(NC3CCN(C)CC3)nc3ccc(C(=O)NCc4ccco4)cc32)n1` [Compound 119], 4.8; in that of `Cc1ccc(O)c(Cn2c(NC3CCN(C)CC3)nc3ccc(CNc4ccc(C(C)C)cc4)cc32)n1` [Compound 76], 7.
With `Cc1cc(C)cc(NCc2ccc3nc(NC4CCN(C)CC4)n(Cc4nc(C)ccc4O)c3c2)c1` [Compound 3], the Activity is recorded as 8.6.
Next, `Cc1ccc(O)c(Cn2c(NC3CCN(C)CC3)nc3ccc(CNc4ccc(Br)cc4C)cc32)n1` [Compound 63]: 7.3; `Cc1ccc(O)c(Cn2c(NC3CCN(C)CC3)nc3cc(NC(=O)Cc4ccccn4)ccc32)n1` [Compound 113]: 5.5; `Cc1cccc(/C=C/c2ccc3c(c2)nc(NC2CCN(CCN)CC2)n3Cc2nc(C)ccc2O)c1.Cl` [Compound 147]: 8.8.
In the case of `Cc1ccc(O)c(Cn2c(NC3CCN(CCO)CC3)nc3ccc(CNc4cccc(O)c4)cc32)n1` [Compound 159] it was 7.9; in that of `Cc1ccc(O)c(Cn2c(NC3CCN(C)CC3)nc3ccc(CNc4cccc(Cl)c4)cc32)n1` [Compound 11], 8.2; in that of `Cc1ccc(O)c(Cn2c(NC3CCN(C)CC3)nc3ccc(NC(=O)Cc4ccccc4)cc32)n1` [Compound 107], 6.1.
Next, `Cc1ccc(O)c(Cn2c(NC3CCN(C)CC3)nc3ccc(NC(=O)Cc4ccccn4)cc32)n1` [Compound 108]: 6.

The values above are taken from patent US8278455B2, “5- or 6-substituted benzimidazole derivatives as inhibitors of respiratory syncytial virus replication” (Janssen Pharmaceutica N.V., priority 2003, dated 2012).
